According to patent US10220021B2, “Methods for treating and preventing ocular diseases, disorders, and conditions with melanin and melanin analogs, precursors, and derivatives” (priority 2014, dated 2019):
Where two headings read alike, the source gives them in different places. One block for each compound: values may come before it.

How the values were obtained:
[1] = tested on: leukoplakia and hyperemia of the eye; test: Topical treatment of leukoplakia and hyperemia of the eye in a patient; format: in vivo, human; conditions: topical cortisone drops, two months, right eye
Description: The leukoplakia was hypothesized to be the result of excessive sun exposure and chemicals. The patient was initially treated with topical cortisone drops, and the cortisone treatment continued for two months.
One month subsequent to stopping cortisone treatment, the patient underwent treatment with a 3% aqueous solution of melanin (w/v) that was topically applied in the form of eye drops. The aqueous solution was produced by mixing water and chemically synthesized melanin (synthetic melanin). […] Three to four drops (about 50 μL per drop) of the 3% aqueous melanin solution were administered for each application, and the solution was applied four times per day at approximately six hour intervals. […] The same dosing regimen was used over the entire course of the treatment.

[2] = tested on: hyphema in rabbits; conditions: rabbit, in vivo; cited from earlier work
[3] = tested on: eyes of healthy rats; conditions: rat, in vivo
Description: The effect of subconjunctival injection of melanin into the eyes of healthy rats was tested. Rats were put under general anesthesia by intraperitoneal injection of barbiturates. A total of five rats were used in the study. Then, 500 μL of a 3% aqueous melanin solution was administered to the right eye of each of the rats by subconjunctival injection. The left eye was left untreated.

[4] = tested on: cornea of the right eye of a Wistar rat; conditions: cited from earlier work; for Observation in Treated Eye: Angiogenesis / Observation in Treated Eye: Corneal Keratoconus / Observation in Treated Eye: No Change: 10 μL topically once, 5 rats treated, one week

Compound: C[C@]12CCC(=O)C=C1CC[C@@H]1[C@@H]2C(=O)C[C@@]2(C)[C@H]1CC[C@]2(O)C(=O)CO [cortisone]
improvement of leukoplakia and hyperemia [1]: no improvement

appearance of treated eyes immediately after injection [3]: increase in size and some distortion | visible marks on the ocular tissue at the injection site [3]: no visible marks
Compound: melanin
incidence of rebleeds [2]: increase | visible signs of inflammation, irritation, or subconjunctival bleeding [3]: nor were any visible signs of inflammation, irritation, or subconjunctival bleeding observed

Compound: Oc1ccccc1 [Phenol, phenol]
formation of new blood vessels in the cornea ([4]; all concentrations of phenol tested (0.1 M to 8.5 M), at least one rat in each group, one week after application): new blood vessels began to form in the cornea | changes associated with corneal ectasia, particularly corneal keratoconus ([4]; higher concentrations of phenol (e.g., 3.0 M, 5.6 M, and 8.5 M)): observed in some of the rats | Observation in Treated Eye: Angiogenesis ([4]; phenol 0.1M): 1 Number of Rats | Observation in Treated Eye: Corneal Keratoconus ([4]; phenol 0.1M): 0 Number of Rats | Observation in Treated Eye: No Change ([4]; phenol 0.1M): 4 Number of Rats | Observation in Treated Eye: Angiogenesis ([4]; phenol 0.5M): 1 Number of Rats | Observation in Treated Eye: Corneal Keratoconus ([4]; phenol 0.5M): 0 Number of Rats | Observation in Treated Eye: No Change ([4]; phenol 0.5M): 4 Number of Rats | Observation in Treated Eye: Angiogenesis ([4]; phenol 1.0M): 3 Number of Rats | Observation in Treated Eye: Corneal Keratoconus ([4]; phenol 1.0M): 0 Number of Rats | Observation in Treated Eye: No Change ([4]; phenol 1.0M): 2 Number of Rats | Observation in Treated Eye: Angiogenesis ([4]; phenol 3.0M): 4 Number of Rats | Observation in Treated Eye: Corneal Keratoconus ([4]; phenol 3.0M): 2 Number of Rats | Observation in Treated Eye: No Change ([4]; phenol 3.0M): 1 Number of Rats | Observation in Treated Eye: Angiogenesis ([4]; phenol 6.5M): 4 Number of Rats | Observation in Treated Eye: Corneal Keratoconus ([4]; phenol 6.5M): 2 Number of Rats | Observation in Treated Eye: No Change ([4]; phenol 6.5M): 1 Number of Rats | Observation in Treated Eye: Angiogenesis ([4]; phenol 8.5M): 3 Number of Rats | Observation in Treated Eye: Corneal Keratoconus ([4]; phenol 8.5M): 1 Number of Rats | Observation in Treated Eye: No Change ([4]; phenol 8.5M): 2 Number of Rats
